Assay results as given in patent US12582661B2, “Synthesis and application of class of respiratory syncytial virus inhibitors” (SHANGHAI ARK BIOPHARMACEUTICAL CO., LTD., priority 2020, dated 2026).
Like-named read-outs stand apart in the source and are kept apart here.

Legend:
[1] = tested on: respiratory syncytial virus; settings: cited from earlier work
RSV Long strain = test: Virus cytopathic effect (CPE) assay, anti-RSV activity in HEp-2 cells; type: cell-based; settings: human respiratory syncytial virus, 96 h, RSV Long strain 0.5 MOI, CellTiter-Glo after 4 days
Procedure: HEp-2 cells (ATCC CCL-23, human laryngeal carcinoma epithelial cells) were purchased from American Type Culture Collection and the culture conditions were as follows: 1% double antibody was added to Dulbecco modified Eagle medium (DMEM) medium containing 10% fetal bovine serum (FBS), and maintained in a 5% CO2 incubator and cultured at 37° C. To evaluate the anti-RSV activity of compounds, cells were seeded in a 96-well plate at a density of 5×10^3 cells/well in Hyclone™ (DMEM) containing 10% fetal bovine serum (FBS). The following day, cells were infected with a 0.5 MOI of RSV Long strain (ATCC) in the presence of 3-fold serial dilutions of compound to a total volume of 100 μL per well. The cell viability was evaluated by the cell counting kit CellTiter-Glo Reagent after 4 days. The fluorescence signal was read on a multi-mode microplate reader and the 50% effective concentration EC50 was determined by the fluorescence value. The RSV inhibition activities of the compounds involved in Examples 1 to 15 disclosed herein were evaluated according to the above method, and the results are shown in Table 3 below.

[2] = Pharmacokinetics in ICR mice, plasma drug concentrations; type: in vivo; settings: for AUC(0-inf) / Cmax / Tmax / clearance / half-life / AUC(0-t) / Vd: ICR, mouse plasma; for AUC(0-t): read-out: AUC0-12; for Vd: read-out: Vss; for concentration at 0.083 h / concentration at 0.25 h / concentration at 0.5 h / concentration at 1 h / concentration at 2 h / concentration at 4 h / concentration at 8 h / concentration at 24 h / concentration at 12 h: mouse, plasma; for concentration at 0.083 h / concentration at 0.25 h / concentration at 0.5 h / concentration at 1 h / concentration at 2 h / concentration at 4 h / concentration at 8 h / concentration at 24 h / F / concentration at 12 h: ICR mice; for F: p.o. 10 mg/kg vs i.v. 2 mg/kg
Procedure: The pharmacokinetics were further tested of Example 4 and Example 7 disclosed herein and Example 61-1 (Comparative Example 1) in patent WO2013020993 in ICR mice. A single intravenous injection (dose of 2 mg/kg) and a single oral administration (dose of 10 mg/kg) were taken respectively. Blood collection point: before administration, 5 min, 15 min, 30 min, 1 h, 2 h, 4 h, 8 h, 12 h, 24 h after administration. The same method was applied to the pharmacokinetics of the above Comparative Example 1 in ICR mice, with a single intravenous injection (dose of 2 mg/kg) and a single oral administration (dose of 10 mg/kg) respectively.

RSV = settings: oral; cited from earlier work

CC(C)C(=O)OC[C@@]1(CCl)O[C@@H](n2ccc(N)nc2=O)[C@H](F)[C@@H]1OC(=O)C(C)C [ALS-8176]
volunteers with reduced respiratory syncytial virus load [1]: more than 85%

Cc1ccc2nc(N3CCS(=O)(=O)c4ccccc4C3)nc(N3CC(N)C3)c2c1 [Example 1, 4-(4-(3-Aminoazetidin-1-yl)-6-methylquinazolin-2-yl)-2,3,4,5-tetrahydrobenzo[f][1,4]thiazepine 1,1-dioxide]
IC50 (RSV Long strain): 4.4 nM

Cc1ccc2nc(N3CCS(=O)(=O)c4ccccc4C3)nc(NCC3CNC3)c2c1 [Example 2, 4-(4-((Azetidin-3-ylmethyl)amino)-6-methylquinazolin-2-yl)-2,3,4,5-tetrahydrobenzo[f][1,4]thiazepine 1,1-dioxide]
IC50 (RSV Long strain): 6.3 nM

Cc1ccc2nc(N3CCS(=O)(=O)c4ccccc4C3)nc(N3CC(CN)(CO)C3)c2c1 [Example 3, 4-(4-(3-(Aminomethyl)-3-(hydroxymethyl)azetidin-1-yl)-6-methylquinazolin-2-yl)-2,3,4,5-tetrahydrobenzo[f][1,4]thiazepine 1,1-dioxide]
IC50 (RSV Long strain): 5 nM

NC1CN(c2nc(N3CCS(=O)(=O)c4ccccc4C3)nc3ccc(C(F)F)cc23)C1 [Example 4, 4-(4-(3-Aminoazetidin-1-yl)-6-(difluoromethyl)quinazolin-2-yl)-2,3,4,5-tetrahydrobenzo[f][1,4]thiazepine 1,1-dioxide]
IC50 (RSV Long strain): 7 nM | AUC(0-inf) ([2]; iv, i.v. 2 mg/kg): 1010 ng·h/mL | Cmax ([2]; iv, i.v. 2 mg/kg): 82.4 ng/mL | Tmax ([2]; iv, i.v. 2 mg/kg): 4 h | clearance ([2]; iv, i.v. 2 mg/kg): 32.8 mL/min/kg | half-life ([2]; iv, i.v. 2 mg/kg): 3.4 h | AUC(0-t) ([2]; iv, i.v. 2 mg/kg): 1010 ng·h/mL | Vd ([2]; iv, i.v. 2 mg/kg): 13.1 L/kg | AUC(0-inf) ([2]; po, p.o. 10 mg/kg): 3780 ng·h/mL | Cmax ([2]; po, p.o. 10 mg/kg): 505 ng/mL | Tmax ([2]; po, p.o. 10 mg/kg): 2 h | half-life ([2]; po, p.o. 10 mg/kg): 3.3 h | AUC(0-t) ([2]; po, p.o. 10 mg/kg): 3760 ng·h/mL | concentration at 0.083 h ([2]; iv, i.v. 2 mg/kg): 38 ng/mL | concentration at 0.25 h ([2]; iv, i.v. 2 mg/kg): 38.4 ng/mL | concentration at 0.5 h ([2]; iv, i.v. 2 mg/kg): 30.7 ng/mL | concentration at 1 h ([2]; iv, i.v. 2 mg/kg): 34.5 ng/mL | concentration at 2 h ([2]; iv, i.v. 2 mg/kg): 43.9 ng/mL | concentration at 4 h ([2]; iv, i.v. 2 mg/kg): 82.4 ng/mL | concentration at 8 h ([2]; iv, i.v. 2 mg/kg): 62.8 ng/mL | concentration at 24 h ([2]; iv, i.v. 2 mg/kg): 1.7 ng/mL | concentration at 0.083 h ([2]; po, p.o. 10 mg/kg): 49.7 ng/mL | concentration at 0.25 h ([2]; po, p.o. 10 mg/kg): 274 ng/mL | concentration at 0.5 h ([2]; po, p.o. 10 mg/kg): 407 ng/mL | concentration at 1 h ([2]; po, p.o. 10 mg/kg): 432 ng/mL | concentration at 2 h ([2]; po, p.o. 10 mg/kg): 505 ng/mL | concentration at 4 h ([2]; po, p.o. 10 mg/kg): 380 ng/mL | concentration at 8 h ([2]; po, p.o. 10 mg/kg): 128 ng/mL | concentration at 24 h ([2]; po, p.o. 10 mg/kg): 5.4 ng/mL | F [2]: 74.6%

NCC1(CO)CN(c2nc(N3CCS(=O)(=O)c4ccccc4C3)nc3ccc(C(F)F)cc23)C1 [Example 5, 4-(4-(3-(Aminomethyl)-3-(hydroxymethyl)azetidin-1-yl)-6-(difluoromethyl)quinazolin-2-yl)-2,3,4,5-tetrahydrobenzo[f][1,4]thiazepine 1,1-dioxide]
IC50 (RSV Long strain): 7.9 nM

O=S1(=O)CCN(c2nc(NC3CNC3)c3cc(C(F)F)ccc3n2)Cc2ccccc21 [Example 6, 4-(4-(Azetidin-3-ylamino)-6-(difluoromethyl)quinazolin-2-yl)-2,3,4,5-tetrahydrobenzo[f][1,4]thiazepine 1,1-dioxide]
IC50 (RSV Long strain): 4.9 nM

NC1(CNc2nc(N3CCS(=O)(=O)c4ccccc4C3)nc3ccc(C(F)F)cc23)COC1 [Example 7, 4-(4-(((3-Aminooxetan-3-yl)methyl)amino)-6-(difluoromethyl)quinazolin-2-yl)-2,3,4,5-tetrahydrobenzo[f][1,4]thiazepine 1,1-dioxide]
IC50 (RSV Long strain): 4.1 nM | AUC(0-inf) ([2]; iv, i.v. 2 mg/kg): 579 ng·h/mL | Cmax ([2]; iv, i.v. 2 mg/kg): 815 ng/mL | Tmax ([2]; iv, i.v. 2 mg/kg): 0.08 h | clearance ([2]; iv, i.v. 2 mg/kg): 57.6 mL/min/kg | half-life ([2]; iv, i.v. 2 mg/kg): 1.6 h | AUC(0-t) ([2]; iv, i.v. 2 mg/kg): 573 ng·h/mL | Vd ([2]; iv, i.v. 2 mg/kg): 3.33 L/kg | AUC(0-inf) ([2]; po, p.o. 10 mg/kg): 481 ng·h/mL | Cmax ([2]; po, p.o. 10 mg/kg): 287 ng/mL | Tmax ([2]; po, p.o. 10 mg/kg): 0.5 h | half-life ([2]; po, p.o. 10 mg/kg): 1.3 h | AUC(0-t) ([2]; po, p.o. 10 mg/kg): 476 ng·h/mL | concentration at 0.083 h ([2]; iv, i.v. 2 mg/kg): 815 ng/mL | concentration at 0.25 h ([2]; iv, i.v. 2 mg/kg): 540 ng/mL | concentration at 0.5 h ([2]; iv, i.v. 2 mg/kg): 335 ng/mL | concentration at 1 h ([2]; iv, i.v. 2 mg/kg): 128 ng/mL | concentration at 2 h ([2]; iv, i.v. 2 mg/kg): 35 ng/mL | concentration at 4 h ([2]; iv, i.v. 2 mg/kg): 12.3 ng/mL | concentration at 8 h ([2]; iv, i.v. 2 mg/kg): 2.7 ng/mL | concentration at 12 h ([2]; iv, i.v. 2 mg/kg): 1.3 ng/mL | concentration at 24 h ([2]; iv, i.v. 2 mg/kg): 1.5 ng/mL | concentration at 0.083 h ([2]; po, p.o. 10 mg/kg): 233 ng/mL | concentration at 0.25 h ([2]; po, p.o. 10 mg/kg): 262 ng/mL | concentration at 0.5 h ([2]; po, p.o. 10 mg/kg): 287 ng/mL | concentration at 1 h ([2]; po, p.o. 10 mg/kg): 180 ng/mL | concentration at 2 h ([2]; po, p.o. 10 mg/kg): 50.1 ng/mL | concentration at 4 h ([2]; po, p.o. 10 mg/kg): 16.7 ng/mL | concentration at 8 h ([2]; po, p.o. 10 mg/kg): 4.6 ng/mL | concentration at 12 h ([2]; po, p.o. 10 mg/kg): 2.9 ng/mL | concentration at 24 h ([2]; po, p.o. 10 mg/kg): 1.4 ng/mL | F [2]: 16.62%

Cc1ccc2nc(N3CCS(=O)(=O)c4ccccc4C3)nc(NCC3(O)CNC3)c2c1 [Example 8, 4-(4-(((3-Hydroxyazetidin-3-yl)methyl)amino)-6-methylquinazolin-2-yl)-2,3,4,5-tetrahydrobenzo[f][1,4]thiazepine 1,1-dioxide]
IC50 (RSV Long strain): 2.9 nM

Cc1ccc2nc(N3CCS(=O)(=O)c4ccccc4C3)nc(N3CCC(O)(CN)C3)c2c1 (centres unmarked) [Example 9, 4-(4-(3-(Aminomethyl)-3-hydroxypyrrolidin-1-yl)-6-methylquinazolin-2-yl)-2,3,4,5-tetrahydrobenzo[f][1,4]thiazepine 1,1-dioxide]
IC50 (RSV Long strain): 0.9 nM

Cc1ccc2nc(N3CCS(=O)(=O)c4ccccc4C3)nc(N3CC(O)(CN)C3)c2c1 [Example 10, 4-(4-(3-(Aminomethyl)-3-hydroxyazetidin-1-yl)-6-methylquinazolin-2-yl)-2,3,4,5-tetrahydrobenzo[f][1,4]thiazepine 1,1-dioxide]
IC50 (RSV Long strain): 3.3 nM

Cc1ccc2nc(N3CCS(=O)(=O)c4ccccc4C3)nc(N3CC(CN)C3)c2c1 [Example 11, 4-(4-(3-(Aminomethyl)azetidin-1-yl)-6-methylquinazolin-2-yl)-2,3,4,5-tetrahydrobenzo[f][1,4]thiazepine 1,1-dioxide]
IC50 (RSV Long strain): 1.2 nM

Cc1ccc2nc(N3CCS(=O)(=O)c4ccccc4C3)nc(NC3CC(N)C3)c2c1 (centres unmarked) [Example 12, 4-(4-((3-Aminocyclobutyl)amino)-6-methylquinazolin-2-yl)-2,3,4,5-tetrahydrobenzo[f][1,4]thiazepine 1,1-dioxide]
IC50 (RSV Long strain): 1.7 nM

Cc1ccc2nc(N3CCS(=O)(=O)c4ccccc4C3)nc(N3CC(N)(CN)C3)c2c1 [Example 13, 4-(4-(3-Amino-3-(aminomethyl)azetidin-1-yl)-6-methylquinazolin-2-yl)-2,3,4,5-tetrahydrobenzo[f][1,4]thiazepine 1,1-dioxide]
IC50 (RSV Long strain): 9.6 nM

Cc1ccc2nc(N3CCS(=O)(=O)c4ccccc4C3)nc(N[C@H]3CNC[C@@H]3O)c2c1 [Example 14, 4-(4-(((3S,4S)-4-hydroxypyrrolidin-3-yl)amino)-6-methylquinazolin-2-yl)-2,3,4,5-tetrahydrobenzo[f][1,4]thiazepine 1,1-dioxide]
IC50 (RSV Long strain): 1.3 nM

Cc1ccc2nc(N3CCS(=O)(=O)c4ccccc4C3)nc(NC3CC4(CNC4)C3)c2c1 [Example 15, 4-(4-((2-azaspiro[3.3]heptan-6-yl)amino)-6-methylquinazolin-2-yl)-2,3,4,5-tetrahydrobenzo[f][1,4]thiazepine 1,1-dioxide]
IC50 (RSV Long strain): 3.7 nM

Cc1cn2nc([C@@H]3CCCCN3C(=O)c3cc(Cl)ccc3NS(C)(=O)=O)cc2nc1N1CC[C@H](N)C1 [GS-5806]
viral load, mucus quantity and symptom scores (RSV): decrease viral load, mucus quantity and symptom scores
